What all share (experiment): potency against CXCR6 with APJ panel – cell-based, beta-arrestin, DiscoveRx, uHTS hits, dose response (AID 624129)
Assay [1] concerns the target Apelin receptor (Homo sapiens) (UniProt P35414). The following applies: CXCR6 beta-arrestin (DiscoveRx) antagonist cell assay, APJ.
Assay [2] addresses Beta-galactosidase (Escherichia coli) (UniProt Q8VNN2). The following applies: CXCR6 beta-arrestin (DiscoveRx) antagonist cell assay, b-galactosidase.
In assay [3] the target is C-C chemokine receptor type 6 (Homo sapiens) (UniProt P51684). The following applies: CXCR6 beta-arrestin (DiscoveRx) antagonist cell assay.
For assay [4], the target named is C-X-C chemokine receptor type 6 (Homo sapiens) (UniProt O00574). The following applies: CXCR6 beta-arrestin (DiscoveRx) antagonist cell assay; for inhibition: CXCR6, run 1, dose range 2, at 80 µM (top of the series).
Where [5] appears, read: dose range 1, mean IC50 across replicates.
Where [6] appears, read: CCR6, dose range 1, mean IC50 across replicates.
[7] abbreviates: CXCR6, dose range 1, mean IC50 across replicates.

Here are results for nine compounds from PubChem BioAssay AID624129 (Sanford-Burnham Center for Chemical Genomics, 2012).

Calls of active or inactive are those of the source. How the calls were made is not given here.

Chain of Beta-galactosidase (Escherichia coli) (Q8VNN2 whole entry, looked up): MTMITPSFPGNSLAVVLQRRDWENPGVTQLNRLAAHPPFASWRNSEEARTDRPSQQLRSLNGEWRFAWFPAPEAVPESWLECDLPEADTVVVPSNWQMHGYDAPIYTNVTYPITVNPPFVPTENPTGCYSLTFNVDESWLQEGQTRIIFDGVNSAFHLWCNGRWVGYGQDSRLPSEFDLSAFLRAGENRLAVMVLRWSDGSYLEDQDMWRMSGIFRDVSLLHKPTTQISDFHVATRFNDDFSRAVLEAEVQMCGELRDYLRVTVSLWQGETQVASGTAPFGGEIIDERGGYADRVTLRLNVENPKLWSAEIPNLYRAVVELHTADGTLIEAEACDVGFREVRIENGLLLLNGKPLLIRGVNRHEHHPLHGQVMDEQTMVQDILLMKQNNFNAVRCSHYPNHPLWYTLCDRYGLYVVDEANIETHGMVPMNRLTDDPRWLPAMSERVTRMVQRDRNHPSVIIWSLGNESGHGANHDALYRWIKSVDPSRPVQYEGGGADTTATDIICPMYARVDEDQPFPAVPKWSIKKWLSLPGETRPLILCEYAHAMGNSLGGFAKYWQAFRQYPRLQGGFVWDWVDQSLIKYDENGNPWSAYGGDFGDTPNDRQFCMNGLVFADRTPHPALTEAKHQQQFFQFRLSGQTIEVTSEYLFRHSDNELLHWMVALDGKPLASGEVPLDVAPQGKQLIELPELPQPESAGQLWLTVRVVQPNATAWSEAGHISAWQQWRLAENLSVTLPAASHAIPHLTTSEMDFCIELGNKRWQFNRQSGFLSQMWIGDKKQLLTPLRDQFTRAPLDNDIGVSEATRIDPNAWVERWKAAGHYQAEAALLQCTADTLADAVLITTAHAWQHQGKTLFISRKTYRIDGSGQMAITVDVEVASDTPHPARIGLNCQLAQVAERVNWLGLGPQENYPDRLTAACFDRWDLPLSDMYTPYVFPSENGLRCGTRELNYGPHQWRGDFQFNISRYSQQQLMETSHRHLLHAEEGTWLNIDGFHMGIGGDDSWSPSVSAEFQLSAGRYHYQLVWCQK
Chain of C-X-C chemokine receptor type 6 (Homo sapiens) (O00574 whole entry, looked up): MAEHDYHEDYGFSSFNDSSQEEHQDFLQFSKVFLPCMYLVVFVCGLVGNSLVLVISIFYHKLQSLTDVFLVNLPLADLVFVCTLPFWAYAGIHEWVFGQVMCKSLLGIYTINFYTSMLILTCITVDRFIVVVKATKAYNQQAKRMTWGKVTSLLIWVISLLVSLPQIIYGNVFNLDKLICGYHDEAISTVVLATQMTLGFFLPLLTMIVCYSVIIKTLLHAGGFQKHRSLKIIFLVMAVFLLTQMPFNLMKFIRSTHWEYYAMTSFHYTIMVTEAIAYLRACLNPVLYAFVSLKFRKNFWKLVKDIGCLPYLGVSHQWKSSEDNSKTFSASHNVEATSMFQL

Consider `COc1ccc(Nc2ccc([N+](=O)[O-])c3nonc23)c(OC)c1`, for which the IC50 was over 80 µM in assay [1] (setting [5]); over 80 µM in assay [1] (run 2, dose range 1); over 80 µM in assay [1] (run 3, dose range 1); > 80 µM (inactive) in assay [2] (dose range 1); over 80 µM in assay [2] (setting [5]); over 80 µM in assay [3] (setting [6]). The IC50 in assay [3] (CCR6, run 2, dose range 1) is over 80 µM; in assay [4] (CXCR6, dose range 1), > 80 µM (inactive); in assay [4] (setting [7]) it was over 80 µM; in assay [4] (CXCR6, run 2, dose range 1), over 80 µM. In assay [4], this compound had an inhibition of 4.14%.
In the case of `Cc1ccc2c(C)ccc(O)c2n1`, the IC50 in assay [1] (dose range 1) was 5.26 µM; in assay [1] (setting [5]) it was 5.92 µM; in assay [1] (run 2, dose range 1), 6.22 µM; in assay [1] (run 3, dose range 1) it was 6.29 µM; in assay [2] (dose range 1) it was > 80 µM (inactive); in assay [2] (setting [5]), over 80 µM. Besides, the IC50 in assay [3] (CCR6, dose range 1) is 4.94 µM; in assay [3] (setting [6]) it was 5.41 µM; in assay [3] (CCR6, run 2, dose range 1), 5.87 µM; in assay [4] (CXCR6, dose range 1) it was 4.91 µM; in assay [4] (setting [7]), 5.07 µM; in assay [4] (CXCR6, run 1, dose range 2) it was 4.36 µM. For the same compound, the IC50 in assay [4] (CXCR6, run 2, dose range 1) stood at 5.82 µM; in assay [4] (CXCR6, run 2, dose range 2), 5.2 µM.
`Cc1cnc(C(=O)Nc2cccc3cccnc23)cn1`: the IC50 is over 80 µM in assay [1] (setting [5]); over 80 µM in assay [1] (run 2, dose range 1); over 80 µM in assay [1] (run 3, dose range 1); > 80 µM (inactive) in assay [2] (dose range 1); over 80 µM in assay [2] (setting [5]); 28.6 µM in assay [3] (CCR6, dose range 1). Besides, the IC50 in assay [3] (setting [6]) is 28.6 µM; in assay [3] (CCR6, run 2, dose range 1) it was over 80 µM; in assay [4] (setting [7]), 22.4 µM; in assay [4] (CXCR6, run 1, dose range 2), 6.94 µM; in assay [4] (CXCR6, run 2, dose range 1), over 80 µM; in assay [4] (CXCR6, run 2, dose range 2), 12 µM. In addition, the IC50 entry in assay [4] (CXCR6, dose range 1) was “inactive”.
Regarding `CCCCCCCCn1sccc1=O`, the IC50 in assay [1] (dose range 1) is 9.73 µM; in assay [1] (setting [5]), 8.1 µM; in assay [1] (run 2, dose range 1), 7.99 µM; in assay [1] (run 3, dose range 1), 6.58 µM; in assay [2] (dose range 1) it was > 80 µM (inactive); in assay [2] (setting [5]) it was over 80 µM. For the same compound, the IC50 was 6.52 µM in assay [3] (CCR6, dose range 1); 6.83 µM in assay [3] (setting [6]); 7.14 µM in assay [3] (CCR6, run 2, dose range 1); 6.96 µM in assay [4] (CXCR6, dose range 1); 8.16 µM in assay [4] (setting [7]); 6.75 µM in assay [4] (CXCR6, run 1, dose range 2). Further, the IC50 in assay [4] (CXCR6, run 2, dose range 1) turned out to be 8.67 µM; in assay [4] (CXCR6, run 2, dose range 2) it was 10.2 µM.
Consider `Cc1[nH][nH]c(=O)c1C(c1c(C)[nH][nH]c1=O)c1cn(Cc2ccc(F)cc2)c2ccccc12`, for which the IC50 was 34.9 µM in assay [1] (dose range 1); 33.3 µM in assay [1] (setting [5]); 32.9 µM in assay [1] (run 2, dose range 1); 32 µM in assay [1] (run 3, dose range 1); > 80 µM (inactive) in assay [2] (dose range 1); over 80 µM in assay [2] (setting [5]). The IC50 is 23 µM in assay [3] (CCR6, dose range 1); 21.6 µM in assay [3] (setting [6]); 20.2 µM in assay [3] (CCR6, run 2, dose range 1); 28.2 µM in assay [4] (setting [7]); 27.7 µM in assay [4] (CXCR6, run 2, dose range 1). Besides, the IC50 result in assay [4] (CXCR6, dose range 1) was “inactive”. Also, the inhibition in assay [4] was 97.7%.
In the case of `Cn1c(O)c(C2=NNC(c3ccc(Cl)cc3)C2)c(=O)n(C)c1=O` (centres undefined), the IC50 in assay [1] (dose range 1) was 9.91 µM; in assay [1] (setting [5]), 13.1 µM; in assay [1] (run 2, dose range 1), 20 µM; in assay [1] (run 3, dose range 1) it was 9.47 µM; in assay [2] (dose range 1), 26.3 µM; in assay [2] (setting [5]), 26.3 µM. Further, the IC50 in assay [3] (CCR6, dose range 1) was 11.2 µM; in assay [3] (setting [6]), 13.6 µM; in assay [3] (CCR6, run 2, dose range 1), 16 µM; in assay [4] (setting [7]) it was 11.7 µM; in assay [4] (CXCR6, run 1, dose range 2), 6.31 µM; in assay [4] (CXCR6, run 2, dose range 1), 17 µM. For the same compound, in assay [4] (CXCR6, run 2, dose range 2), the IC50 was found to be 8.11 µM. Moreover, in assay [4] (CXCR6, dose range 1), the IC50 entry is “inactive”.
On to `CC(=O)OCCNc1cc(SCc2ccco2)c2nonc2c1[N+](=O)[O-]`, for which the IC50 was 21.1 µM in assay [1] (dose range 1); 18.8 µM in assay [1] (setting [5]); 17.8 µM in assay [1] (run 2, dose range 1); 17.5 µM in assay [1] (run 3, dose range 1); > 80 µM (inactive) in assay [2] (dose range 1); over 80 µM in assay [2] (setting [5]). For the same compound, the IC50 in assay [3] (CCR6, dose range 1) was 13.8 µM; in assay [3] (setting [6]), 14 µM; in assay [3] (CCR6, run 2, dose range 1) it was 14.2 µM; in assay [4] (setting [7]), 15.4 µM; in assay [4] (CXCR6, run 2, dose range 1), 16.6 µM. Besides, the IC50 entry in assay [4] (CXCR6, dose range 1) is “inactive”. The compound also gave an inhibition in assay [4] of 74.8%.
On to `Cc1cccnc1Nc1nc(-c2ccccn2)cs1`, for which the IC50 is 1.2 µM in assay [1] (dose range 1); 1.38 µM in assay [1] (setting [5]); 1.82 µM in assay [1] (run 2, dose range 1); 1.13 µM in assay [1] (run 3, dose range 1); > 80 µM (inactive) in assay [2] (dose range 1); over 80 µM in assay [2] (setting [5]). Further, the IC50 in assay [3] (CCR6, dose range 1) was 0.955 µM; in assay [3] (setting [6]) it was 1.22 µM; in assay [3] (CCR6, run 2, dose range 1) it was 1.48 µM; in assay [4] (CXCR6, dose range 1), 1.13 µM; in assay [4] (setting [7]), 0.904 µM; in assay [4] (CXCR6, run 1, dose range 2), 0.837 µM. Besides, the IC50 came out at 0.861 µM in assay [4] (CXCR6, run 2, dose range 1) and 0.788 µM in assay [4] (CXCR6, run 2, dose range 2).
In the case of `C=C1CC(COc2ccc3c(C)c(Cl)c(=O)oc3c2)(c2ccccc2)OC1=O` (centres undefined), the IC50 in assay [1] (dose range 1) was > 80 µM (inactive); in assay [1] (setting [5]), 35.3 µM; in assay [1] (run 2, dose range 1) it was 54.2 µM; in assay [1] (run 3, dose range 1) it was 16.4 µM; in assay [2] (dose range 1) it was > 80 µM (inactive); in assay [2] (setting [5]) it was over 80 µM. In addition, the IC50 in assay [3] (CCR6, dose range 1) was 0.174 µM; in assay [3] (setting [6]), 1.42 µM; in assay [3] (CCR6, run 2, dose range 1), 2.66 µM; in assay [4] (CXCR6, dose range 1), 3.92 µM; in assay [4] (setting [7]), 3.92 µM; in assay [4] (CXCR6, run 2, dose range 1), over 80 µM. This compound gave an inhibition in assay [4] of 55.2%.
